Measured values published in patent US20170056423A1 (Gilead Sciences, Inc., priority 2012, published 2017).
Read-outs that look alike come from different tables or passages of the source.

Experiments:
[1] = 25 mg level
Protocol: In order to provide a robust assessment of pharmacokinetic comparisons between test versus reference treatments, a balanced Williams 4×4 design was used in each cohort.
The evaluation used two cohorts of twenty patients. In Cohort 1, the following study treatments were administered.

[2] = system: cytochrome P450 enzymes (all isoforms tested); assay: in vitro; settings: human
[3] = target: human pregnane X receptor (Homo sapiens, UniProt O75469); assay: pregnane X receptor activation
[4] = system: HIV-1; settings: against HIV-1 in T cells, activated PBMCs, and macrophages
[5] = target: aryl hydrocarbon receptor (Homo sapiens, UniProt P35869); assay: aryl hydrocarbon receptor activation
[6] = target: UGT1A1 (Homo sapiens, UniProt P22309); settings: at concentrations up to 50 μM
[7] = Study 1, while receiving GS-7340 SA (25 mg)

Chain of UGT1A1 (P22309 26-533): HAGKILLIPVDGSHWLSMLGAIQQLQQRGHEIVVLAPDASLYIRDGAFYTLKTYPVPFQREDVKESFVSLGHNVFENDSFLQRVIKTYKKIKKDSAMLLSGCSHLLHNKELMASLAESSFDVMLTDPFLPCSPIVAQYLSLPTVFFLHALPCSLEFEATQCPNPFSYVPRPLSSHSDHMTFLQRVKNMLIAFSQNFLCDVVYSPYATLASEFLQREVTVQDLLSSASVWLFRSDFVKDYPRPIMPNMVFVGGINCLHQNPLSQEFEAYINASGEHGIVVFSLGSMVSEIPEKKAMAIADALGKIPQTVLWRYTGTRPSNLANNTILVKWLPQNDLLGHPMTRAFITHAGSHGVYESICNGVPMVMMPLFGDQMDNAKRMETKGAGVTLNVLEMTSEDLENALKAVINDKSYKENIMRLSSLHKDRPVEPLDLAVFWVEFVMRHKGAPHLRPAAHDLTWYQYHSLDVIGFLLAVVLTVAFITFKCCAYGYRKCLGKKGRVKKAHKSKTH
Chain of human pregnane X receptor (O75469 whole entry): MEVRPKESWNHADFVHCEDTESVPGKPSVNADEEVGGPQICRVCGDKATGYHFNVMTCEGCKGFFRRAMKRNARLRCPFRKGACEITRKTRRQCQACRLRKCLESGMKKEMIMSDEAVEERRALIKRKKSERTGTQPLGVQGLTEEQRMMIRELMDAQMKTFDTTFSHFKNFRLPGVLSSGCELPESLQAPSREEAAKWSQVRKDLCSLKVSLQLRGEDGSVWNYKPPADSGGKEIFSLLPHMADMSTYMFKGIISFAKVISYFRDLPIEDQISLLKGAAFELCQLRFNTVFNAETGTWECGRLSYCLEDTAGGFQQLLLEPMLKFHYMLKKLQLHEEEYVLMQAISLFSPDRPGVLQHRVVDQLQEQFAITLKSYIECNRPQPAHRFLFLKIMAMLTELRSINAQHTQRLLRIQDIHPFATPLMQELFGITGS
Chain of aryl hydrocarbon receptor (P35869 11-848, species assumed): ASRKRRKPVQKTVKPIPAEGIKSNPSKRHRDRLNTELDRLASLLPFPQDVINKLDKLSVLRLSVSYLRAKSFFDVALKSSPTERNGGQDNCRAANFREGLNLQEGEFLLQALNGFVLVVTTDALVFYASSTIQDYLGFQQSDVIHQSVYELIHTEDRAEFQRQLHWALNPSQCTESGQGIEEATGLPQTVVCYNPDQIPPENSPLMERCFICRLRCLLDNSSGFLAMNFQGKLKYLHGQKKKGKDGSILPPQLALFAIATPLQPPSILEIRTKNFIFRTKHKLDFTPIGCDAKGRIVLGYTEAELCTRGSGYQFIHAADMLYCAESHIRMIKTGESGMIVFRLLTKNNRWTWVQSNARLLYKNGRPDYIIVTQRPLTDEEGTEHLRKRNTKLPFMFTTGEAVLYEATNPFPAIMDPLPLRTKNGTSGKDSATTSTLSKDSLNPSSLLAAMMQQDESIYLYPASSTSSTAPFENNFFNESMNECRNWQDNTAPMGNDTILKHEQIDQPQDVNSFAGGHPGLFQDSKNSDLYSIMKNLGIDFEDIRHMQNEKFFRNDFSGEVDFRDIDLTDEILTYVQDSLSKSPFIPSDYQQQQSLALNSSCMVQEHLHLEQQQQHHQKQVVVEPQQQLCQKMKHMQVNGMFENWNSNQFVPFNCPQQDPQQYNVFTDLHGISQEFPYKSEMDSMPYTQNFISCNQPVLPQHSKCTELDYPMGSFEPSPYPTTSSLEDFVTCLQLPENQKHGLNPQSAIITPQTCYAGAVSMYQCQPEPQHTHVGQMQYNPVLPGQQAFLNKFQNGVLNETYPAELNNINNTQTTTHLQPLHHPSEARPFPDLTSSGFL

In the case of `CC(C)OC(=O)[C@H](C)N[P@](=O)(CO[C@H](C)Cn1cnc2c(N)ncnc21)Oc1ccccc1` [GS-7340, 9-[(R)-2-[[(S)-[[(S)-1-(isopropoxycarbonyl)ethyl]amino]phenoxyphosphinyl]methoxy]propyl]adenine], the “GS-7340 levels, fold higher when administered with cobicistat” value ([1]; Cohort 1 (Formulation 1, monolayer), FIG. 6) is reported as 2.2 fold, the “GS-7340 levels, fold higher when administered with cobicistat” value ([1]; Cohort 2 (Formulation 2, bilayer), FIG. 7) is reported as 2.2 fold and the IC50 [2] is reported as greater than 7 µM. The “activation of human pregnane X receptor” value [3] was “not an activator”, the “enhanced anti-HIV activity relative to tenofovir” value [4] was 500- to 1000 fold and the “activation of aryl hydrocarbon receptor” value [5] was “not an activator”. The “inhibition of UGT1A1 function” value [6] was “does not inhibit” and the “adverse event leading to one discontinuation” value [7] was “rhabdomyolysis (Grade 2)”.
